Reference: patent US20130039856A1, “Products and Methods” (priority 2010, published 2013)

Columns and labels:
[1] = test system: C. elegans; experiment: C. elegans lifespan analysis on E. coli plates; type: in vivo, Caenorhabditis elegans; conditions: for effect of supplementation on extended lifespan of C. elegans on ubiG mutant bacteria: Q-deficient ubiG bacteria; for effect of supplementation on extended lifespan of C. elegans on ubiG mutant bacteria / effect of supplementation on lifespan of C. elegans on control HT115(DE3) strain: test for toxic effect of supplement; for effect of supplementation on lifespan of C. elegans on control HT115(DE3) strain: control bacteria; for increase in C. elegans lifespan: vs control; for effect of media supplementation on C. elegans lifespan on aroD mutant bacteria: supplement 40 μg/ml (PABA 0.29 mM), glp-4(bn1), 25° C.
Experimental: Nematode growth media was prepared as described using 2.5 g/l soy peptone (Sigma P6713). Where indicated plates were supplemented with shikimic acid (40 μg/ml), I-phenylalanine, I-tryptophan and I-tyrosine (all at 40 μg/ml), 4-amino benzoic acid (PABA 40 μg/ml=0.29 mM), sodium folate (0.29 mM and 0.58 mM folic acid dissolved in NaOH). For the kanamycin treatment of bacteria, 80 μl of 10 mM kanamycin was added after 24 hours of bacterial growth as described. All compounds were from Sigma-Aldrich.
For all lifespans and unless indicated differently in Supplementary Table 1, survival analyses were performed by the following method: Eggs were prepared from bleaching adults to remove all microbes, and then placed onto plates containing aroD mutant bacteria. Animals were raised at 15° C. until adulthood due to the temperature sensitivity of mutant phenotypes. Gravid adulthoods were used to lay eggs onto fresh aroD mutant plates. At L3/L4 these animals were transferred to 25° C. and larvae of equivalent stage were put onto at least 5 plates of 25 worms for each condition. Animals were transferred to fresh plates after 7 and 14 days and scored for survival every 2-3 days. Lifespan data was analysed by JMP statistical software (SAS). Where relevant, statistical significance was determined using the Log-Rank and Wilcoxon tests of fitting to the Kaplan-Meier survival model.

[2] = test system: humans aged 60 to 81; conditions: cited from earlier work
[3] = test system: yeast; conditions: cited from earlier work
[4] = test system: worms; conditions: cited from earlier work
[5] = test system: flies; conditions: cited from earlier work
[6] = test system: one species of fish; conditions: cited from earlier work
[7] = test system: E. coli; experiment: HPLC/MS folate levels in bacteria; type: cell-based; conditions: SMX-treated OP50 bacteria, duplicate experiments, FIG. 9B
Text: Both the aroD mutation and treatment with SMX inhibit folate synthesis in bacteria. […] This folate species is approximately three fold less abundant in the aroD mutant compared to the control strain (in duplicate experiments, FIG. 9A) and at least 10 times less abundant in the SMX-treated OP50 bacteria compared to the untreated control (in duplicate experiments, FIG. 9B).

[8] = test system: C. elegans; experiment: HPLC/MS folate levels in worms; type: in vivo; conditions: worms raised on OP50 bacteria treated with SMX, duplicate experiments, FIG. 9D
Text: Similar techniques were used to quantify levels of folates in worms, although proteinase K digestion of the worms was used to get a good extraction of folates. The most abundant folate species in C. elegans using this method of detection was 5-methyl tetrahydrofolate pentaglutamate. Worms raised on aroD bacteria had 25 to 30% less of this folate species than worms on the control bacteria (in duplicate experiments, FIG. 9C). Worms raised OP50 bacteria treated with SMX had approximately 75% less folate than worms raised on the control bacteria (in duplicate experiments, FIG. 9D).

[9] = test system: E. coli; experiment: Effect on E. coli growth (absorbance, relative cell numbers); type: cell-based
Experimental: The inventors investigated the effect of SMX on E. coli growth. Under the conditions that caused an increase in C. elegans lifespan, they scraped the E. coli from the agar plates used to culture worms after two days of growth and used absorbance to estimate relative cell numbers. 128 μg/ml SMX caused a mean effect of reducing E. coli numbers by approx 11% (+/−5%, standard error, n=4). There was no effect on growth in liquid culture with the same nutrient conditions as used for lifespan analysis (FIG. 10).

Nc1nc2ncc(CNc3ccc(C(=O)N[C@@H](CCC(=O)O)C(=O)O)cc3)nc2c(=O)[nH]1 [folate, folic acid]
effect of supplementation on extended lifespan of C. elegans on ubiG mutant bacteria [1]: no effect
effect of adding folic acid to SMX plates on C. elegans lifespan ([1]; SMX plates, FIG. 8): reverses the effect of SMX
effect of supplementation on lifespan of C. elegans on control HT115(DE3) strain [1]: no effect
effect of folate supplementation on C. elegans lifespan on aroD mutant ([1]; doubled folate concentration (0.58 mM, 2× folate) vs 1× folate, difference not statistically significant): slightly shorter
effect of folate supplementation on C. elegans lifespan extension on aroD mutant ([1]; same molar concentration as PABA (0.29 mM, 1× folate)): reduced the C. elegans lifespan extension substantially but not completely

CC(C)(N)C(=O)N[C@H](COCc1ccccc1)C(=O)N1CCC2(CC1)CN(S(C)(=O)=O)c1ccccc12 [MK-677]
muscle mass lost due to ageing restored [2]: 20%

Oc1ccc(C=Cc2cc(O)cc(O)c2)cc1 [resveratrol]
extension of lifespan [3]: up to 60%
extension of lifespan [4]: up to 30%
extension of lifespan [5]: up to 30%
extension of lifespan [6]: ~60%

Cc1cc(NS(=O)(=O)c2ccc(N)cc2)no1 [SMX, sulfamethoxazole]
increase in C. elegans lifespan ([1]; 16 μg/ml SMX treatment of the bacteria): around 24%
increase in C. elegans lifespan ([1]; 64 μg/ml SMX, not significantly different to 16 μg/ml): 27%
increase in C. elegans lifespan ([1]; 128 μg/ml SMX, significantly different to 16 μg/ml (p<0.05)): 33%
effect on C. elegans lifespan ([1]; inhibition of the bacterial folate pathway, FIG. 6): lifespan can be increased
formyl tetrahydrofolate triglutamate abundance, decrease vs untreated control [7]: at least 10 times
less folate (5-methyl tetrahydrofolate pentaglutamate) in worms vs worms on control bacteria [8]: approximately 75%
reduction of E. coli numbers ([9]; 128 μg/ml SMX, agar plates, two days of growth, absorbance, +/−5% standard error, n=4): approx 11%
effect on E. coli growth in liquid culture ([9]; same nutrient conditions as lifespan analysis, FIG. 10): no effect

O=C(O)C1=C[C@@H](O)[C@@H](O)[C@H](O)C1 [shikimic acid]
effect of media supplementation on C. elegans lifespan on aroD mutant bacteria [1]: revert to normal

Nc1ccc(C(=O)O)cc1 [PABA, para-aminobenzoic acid]
effect of supplementation on extended lifespan of C. elegans on ubiG mutant bacteria [1]: no effect
effect of supplementation on lifespan of C. elegans on control HT115(DE3) strain [1]: no effect
effect of media supplementation on C. elegans lifespan on aroD mutant bacteria [1]: reversed the lifespan increase completely

N[C@@H](Cc1c[nH]c2ccccc12)C(=O)O [tryptophan]
effect of media supplementation on C. elegans lifespan on aroD mutant bacteria [1]: small negative effect
